Laboratory results taken from US12360111B2, “G protein-coupled receptor screening systems” (The University of North Carolina at Chapel Hill, priority 2018, dated 2025).
Entries after “also recorded” stand apart in the source; their conditions may differ. Like-named read-outs stand apart in the source and are kept apart here.

Columns and labels:
[1] = test system: HEK293 cells; test: Calcium release in HEK293 cells without serotonin receptors; type: cell-based; conditions: cells do not express serotonin (5-HT) receptors
[2] = test system: Gα proteins fused to the μ-opioid receptor (MOR); test: Competition radioligand binding at six Gα proteins fused to MOR
[3] = molecular target: T1, μ-opioid receptor (MOR) (Homo sapiens, UniProt P35372); test: TRUPATH after alkylation of MOR with β-FNA (receptor reserve); type: cell-based; conditions: increasing β-FNA treatment
T1 construct: expressed in transfected cells
T1 sequence (P35372 whole entry): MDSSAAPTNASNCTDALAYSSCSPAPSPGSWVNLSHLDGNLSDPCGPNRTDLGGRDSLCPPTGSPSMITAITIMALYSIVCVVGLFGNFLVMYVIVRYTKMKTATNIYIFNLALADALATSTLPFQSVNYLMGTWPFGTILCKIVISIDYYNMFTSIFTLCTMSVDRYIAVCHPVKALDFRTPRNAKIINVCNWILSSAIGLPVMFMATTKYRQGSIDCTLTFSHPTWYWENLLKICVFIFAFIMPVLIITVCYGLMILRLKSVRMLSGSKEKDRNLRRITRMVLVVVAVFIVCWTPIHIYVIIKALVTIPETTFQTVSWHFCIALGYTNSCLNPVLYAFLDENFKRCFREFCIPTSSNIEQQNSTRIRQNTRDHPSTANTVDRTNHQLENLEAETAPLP

[4] = molecular target: T2, KOR, Gαi/o-class TRUPATH sensors (Homo sapiens, UniProt P41145); type: cell-based
T2 construct: expressed in transfected cells
T2 sequence (P41145 whole entry): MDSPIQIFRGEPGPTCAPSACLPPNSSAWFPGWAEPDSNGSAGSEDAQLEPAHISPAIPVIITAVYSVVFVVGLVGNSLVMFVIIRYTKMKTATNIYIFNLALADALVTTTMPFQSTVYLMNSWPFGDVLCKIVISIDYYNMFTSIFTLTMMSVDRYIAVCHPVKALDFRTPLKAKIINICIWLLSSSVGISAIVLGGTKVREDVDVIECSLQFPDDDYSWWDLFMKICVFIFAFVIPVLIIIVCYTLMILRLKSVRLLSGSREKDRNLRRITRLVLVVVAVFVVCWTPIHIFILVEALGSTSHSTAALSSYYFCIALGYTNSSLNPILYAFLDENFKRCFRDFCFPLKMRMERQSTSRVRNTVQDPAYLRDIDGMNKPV

[5] = test system: 5-HT5A receptor fused to Gi, Gq or Gs; test: [35S]GTPγS loading at 5-HT5A receptor-Gα fusions; type: biochemical; conditions: Gi vs Gq vs Gs fusions
[6] = test system: serotonin-5A receptor (HTR5A)-Gαi1 RLuc fusion; test: Fusion BRET at HTR5A-Gαi1 RLuc; type: cell-based
[7] = test system: mu-opioid receptor fused to Gαi1-RLuc8 chimera (MOR-Gi1RLuc); conditions: for binding to and GPPNHP elution from membranes (in words): unfused MOR vs MOR-Gαi1 membranes
[8] = molecular target: T3, μ-opioid receptor (MOR) fused to Gαi1 protein (MOR-Gi1) (Homo sapiens, UniProt P35372+P63096); test: ADSoRB screen with radiolabeled agonist tracer at MOR-Gi1 microsomes; type: binding
T3 construct: expressed in transfected cells; host or cells: HEK293 suspension cells, microsomal membranes
T3 sequence (P35372+P63096 fused): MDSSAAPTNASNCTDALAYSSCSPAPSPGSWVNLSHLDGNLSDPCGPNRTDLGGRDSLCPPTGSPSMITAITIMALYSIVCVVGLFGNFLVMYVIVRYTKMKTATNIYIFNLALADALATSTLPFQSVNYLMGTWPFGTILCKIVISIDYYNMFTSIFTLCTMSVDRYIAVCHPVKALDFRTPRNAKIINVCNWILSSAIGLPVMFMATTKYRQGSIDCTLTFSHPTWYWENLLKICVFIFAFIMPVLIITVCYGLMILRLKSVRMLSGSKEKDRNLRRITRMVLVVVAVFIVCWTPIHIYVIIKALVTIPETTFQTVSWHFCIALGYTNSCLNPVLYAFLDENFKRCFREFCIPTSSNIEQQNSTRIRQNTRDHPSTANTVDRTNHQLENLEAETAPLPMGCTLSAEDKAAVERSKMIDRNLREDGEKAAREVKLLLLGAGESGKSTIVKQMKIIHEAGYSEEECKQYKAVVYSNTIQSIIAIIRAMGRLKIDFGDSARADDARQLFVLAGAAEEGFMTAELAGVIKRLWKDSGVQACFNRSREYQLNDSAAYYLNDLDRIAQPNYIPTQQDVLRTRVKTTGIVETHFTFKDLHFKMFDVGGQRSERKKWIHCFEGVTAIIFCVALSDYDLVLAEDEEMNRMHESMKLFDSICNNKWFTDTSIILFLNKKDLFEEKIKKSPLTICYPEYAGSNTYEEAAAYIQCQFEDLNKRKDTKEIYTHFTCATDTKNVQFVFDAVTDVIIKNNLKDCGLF

[9] = molecular target: T4, mu-opioid receptor unfused (MOR) (Homo sapiens, UniProt P35372); type: binding
T4 construct: expressed in transfected cells
T4 sequence (P35372 whole entry, the tested form may be a part): as the sequence (P35372 whole entry) above

Molecule: COc1cc(CC(C)N)c(OC)cc1I (centres unmarked) [DOI]
- calcium release (in words) [1]: do not cause calcium release

Molecule: COc1ccsc1CNCC[C@@]1(c2ccccn2)CCOC2(CCCC2)C1 [TRV130]
- affinity shift vs unfused MOR (in words) [2]: shift compared to unfused MOR

Molecule: COC(=O)/C=C/C(=O)N[C@@H]1CC[C@@]2(O)[C@H]3Cc4ccc(O)c5c4[C@@]2(CCN3CC2CC2)[C@H]1O5 [β-FNA]
- effect on maximal efficacy (Emax) [3]: strong inhibition of maximal efficacy
- effect on potency [3]: minimal effect on potency

Molecule: O=C(c1ccccn1)N(Cc1cccs1)C1(C(=O)NC2CCCCC2)CCCCC1 [ML139]
- efficacy across transducers (in words) [4]: activated all transducers with equal efficacy

Molecule: NCCc1c[nH]c2ccc(O)cc12 [5-HT]
- G protein activation ([35S]GTPγS loading, in words) [5]: only seen at the Gi fusion
- calcium release (in words) [1]: do not cause calcium release
- BRET response (in words) [6]: reliable and substantial serotonin response

Molecule: C[C@@H](NC(=O)[C@@H](N)Cc1ccc(O)cc1)C(=O)NCC(=O)N(C)[C@@H](Cc1ccccc1)C(=O)NCCO [DAMGO]
- affinity shift vs unfused MOR (in words) [2]: shift compared to unfused MOR
- binding to and GPPNHP elution from membranes (in words) [7]: ability to bind and elute

Molecule: CCN(CC)C(=O)N[C@H]1C=C2c3cccc4[nH]cc(c34)C[C@H]2N(C)C1 [Lisuride]
- calcium release (in words) [1]: do not cause calcium release

Molecule: COC(=O)N1CCN(C(=O)Cc2ccc(Cl)c(Cl)c2)C(CN2CCCC2)C1 (centres unmarked) [GR89,696]
- efficacy across transducers (in words) [4]: activated all transducers with equal efficacy

Molecule: Leu-enkephalin
- affinity shift vs unfused MOR (in words) [2]: shift compared to unfused MOR

Molecule: C[C@@H](NC(=O)[C@@H](N)Cc1ccc(O)cc1)C(=O)NCC(=O)N(C)[C@@H](Cc1ccccc1)C(=O)NCCO [[3H]DAMGO]
- elution upon complex dissociation/uncoupling with GPPNHP ([8]; GPPNHP elution): 30 % of total agonist added
- elution with buffer control ([8]; buffer elution): 2 % of total agonist added
- elution upon complex dissociation with GPPNHP [9]: 0.8 % of total
- unbound tracer [9]: 67%
- unbound tracer ([7]; MOR-Gi1RLuc complex): 23%
- elution upon complex dissociation with GPPNHP ([7]; high affinity MOR-Gi1RLuc complex): 7 % of total
- binding to and GPPNHP elution from membranes (in words) ([7]; listed as [^3H]DAMGO): binds more strongly to the MOR-Gαi1 complex; also recorded: elutes to a greater extent
